In publication PMC11790914, “Chemogenomics for steroid hormone receptors (NR3)” (Communications Chemistry, 2025):
Where “and” joins values, the source holds several entries; their conditions need not be identical. Equal entries are not always repeated. Where two headings read alike, the source gives them in different places.

Columns and labels:
[1] = cited from earlier work
HEK293T cells [2] = experiment: Cytotoxicity: growth-rate (change in confluence over 24 h); conditions: 1 µM, normalized to 0.1% DMSO control, single replicates (n=1...)
Protocol: Cells were incubated with the test compounds at the indicated concentrations solubilized with 0.1% DMSO for 24 h. Growth-rate was determined based on the change in confluence over 24 h normalized to the change in confluence of cells treated with the 0.1% DMSO control (n = 10). Metabolic activity was determined with a water-soluble tetrazolium-8 (WST-8) assay (n = 8) after 24 h treatment. Apoptotic cells were detected with a fluorogenic DNA dye coupled to the caspase-3/7 recognition sequence (DEVD) after 24 h treatment and the apoptotic cell count was normalized to 0.1% DMSO treated cells (n = 6).
HEK293T cells (German Collection of Microorganisms and Cell Culture GmbH, DSMZ; #ACC305) were cultured in DMEM high glucose, supplemented with 10% fetal calf serum (FCS), sodium pyruvate (1 mM), penicillin (100 µ/mL) and streptomycin (100 µg/mL) at 37 °C and 5% (v/v) CO2, and seeded in pre-coated (10 µg/mL collagen G solution (Merck KgaA; #L7213) for 30 min at 37 °C) 96-well plates (2 × 10^5 cells per well). After 24 h, the cells were treated with the respective NR3 CG compound candidate at the recommended concentration, bexarotene (100 µM) or doxorubicin (30 µM) as positive controls in DMEM high glucose supplemented with 0.1% FCS, penicillin (100 µ/mL), streptomycin (100 µg/mL) and 0.1% DMSO, or 0.1% DMSO alone as an untreated control. Each sample was prepared in at least four biologically independent replicates. […] Thereafter, the medium was aspirated and the cells were incubated for 3 h with 90 µL DMEM high glucose supplemented with 0.2% FCS, penicillin (100 µ/mL) and streptomycin (100 µg/mL) and additionally containing 10 µL Cell Counting Kit 8 solution (CCK-8; MedChemExpress, Monmouth Junction, New York, USA; #HY-K0301), and absorbance was measured at 1 h, 2 h and 3 h of incubation at 450 nm on a Tecan Spark Cyto to assess metabolic activity of the cells. Before drug administration, after the first medium exchange, 24 h after drug administration, and after fluorescence imaging cell confluence was assessed using the Tecan Spark Cyto, to account for changes in cell confluence due to drug administration and cell handling. Compound effects on cell confluence, apoptosis, metabolic activity and necrosis were normalized to the vehicle control of each biological replicate individually.

HEK293T cells [3] = experiment: Cytotoxicity: apoptosis induction (caspase-3/7 DEVD fluorogenic DNA dye); conditions: for Apoptosis induction [AI]: 1 µM, single replicates
GSK3B = molecular target: T1, GSK3B (Homo sapiens, UniProt P49841); experiment: Liability panel screening by DSF: GSK3B; assay type: binding; conditions: read-out: Mean ΔTM GSK3B
T1 construct: made in house

TRIM24 = molecular target: T2, TRIM24 (Homo sapiens, UniProt O15164); experiment: Liability panel screening by DSF: TRIM24; assay type: binding; conditions: read-out: Mean ΔTM TRIM24
T2 construct: This panel comprised ten highly ligandable kinases and bromodomains; made in house
T2 sequence (O15164 899-1004 limits assumed): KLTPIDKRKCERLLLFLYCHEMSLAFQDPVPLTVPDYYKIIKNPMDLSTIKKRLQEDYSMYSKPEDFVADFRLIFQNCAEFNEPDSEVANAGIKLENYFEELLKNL
Summary of the method: (§1)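 ∆Tm in K was taken from Boltzmann-fitted unfolding inflection points, run in duplicate with a temperature ramp of 3 °C per minute up to 85 °C. Each recombinant protein (2 µM) was in HEPES 10 mM pH 7.5 and NaCl 500 mM, with SYPRO Orange dye at 1:1000.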

HEK293T cells [4] = experiment: Evaluation of cytotoxicity (overall: growth-rate, metabolic activity, apoptosis, necrosis); assay type: cell-based; conditions: HEK293T, 24 h; budesonide (3 µM), others at tested concentration
Protocol: The selection of 40 CG candidates was acquired from commercial vendors (purity ≥95%) and applied to initial toxicity screening. Cytotoxicity was determined in HEK293T cells considering growth-rate, metabolic activity as well as apoptosis and/or necrosis induction to evaluate suitability of the compounds for CG application in cellular settings (Fig. 3a–d, Supplementary Fig. 1, Supplementary Data 1). The candidates were generally well tolerated at concentrations >>EC50/IC50 that we recommend for CG application with only four compounds showing mild toxic effects. […] In terms of cytotoxicity, all candidates thus appeared suitable for inclusion in an NR3 CG set.

Gal4-VP16 = assay type: cell-based; conditions: 1 µM
Protocol: Five hours after transfection, the cells were incubated with the NR3 CG compound candidates at the recommended concentrations by changing the medium to Opti-MEM supplemented with penicillin (100 µ/mL) and streptomycin (100 µg/mL) additionally containing 0.1% DMSO and the respective test compound or 0.1% DMSO alone as untreated control. Firefly (reporter) and renilla (control) luminescence were measured after 14–16 h incubation using the Dual-Glo® Luciferase Assay System (Promega, Fitchburg, Wisconsin, USA; #E2980) according to manufacturer’s protocol on a Tecan Spark® 10M multimode microplate reader (Tecan Group AG, Männedorf, Switzerland). To obtain relative light units (RLU) firefly luminescence was divided by renilla luminescence and multiplied by 1000. Fold activation was obtained by dividing the mean RLU of a test sample by the mean RLU of the DMSO (0.1%) control. Experiments were performed in singlets in at least three biologically independent repeats.
are labeled according to their mode of action (yellow - agonist, grey - antagonist, grey with label D - degrader) and grouped by their
NR3 subfamily main targets.
reporter activity at the indicated concentrations expressed as mean fold reporter gene activity (n=3).

AURKA = molecular target: T3, AURKA (Homo sapiens, UniProt O14965); experiment: Liability panel screening by DSF: AURKA; assay type: binding; conditions: read-out: Mean ΔTM AURKA
T3 construct: made in house
T3 sequence (O14965 1-403): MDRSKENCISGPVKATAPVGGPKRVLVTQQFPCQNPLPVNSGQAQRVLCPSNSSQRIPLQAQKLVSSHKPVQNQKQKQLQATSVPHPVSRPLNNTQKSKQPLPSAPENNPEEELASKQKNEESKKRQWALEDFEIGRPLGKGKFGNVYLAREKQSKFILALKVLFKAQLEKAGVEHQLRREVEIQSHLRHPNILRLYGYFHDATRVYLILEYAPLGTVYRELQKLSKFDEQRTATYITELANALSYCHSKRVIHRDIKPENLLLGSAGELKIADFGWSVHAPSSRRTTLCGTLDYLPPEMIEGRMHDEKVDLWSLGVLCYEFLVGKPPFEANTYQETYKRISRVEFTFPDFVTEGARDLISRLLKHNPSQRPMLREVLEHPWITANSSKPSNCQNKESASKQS
Summary of the method: as §1

HEK293T cells [5] = experiment: Cytotoxicity: metabolic activity (WST-8 / CCK-8 assay); conditions: 1 µM, single replicates
NR3A2 (ERβ) = conditions: (lit.); ref Supplementary Table 1; read-out: Potency [nM] EC50, NR3A2 (ERβ); cited from earlier work
ABL1 = molecular target: T4, ABL1 (Homo sapiens, UniProt P00519); experiment: Liability panel screening by DSF: ABL1; assay type: binding; conditions: read-out: Mean ΔTM ABL1
T4 construct: made in house
Summary of the method: as §1

MAPK1 = molecular target: T5, MAPK1 (Homo sapiens, UniProt P28482); experiment: Liability panel screening by DSF: MAPK1; assay type: binding; conditions: read-out: Mean ΔTM MAPK1
T5 construct: made in house
Summary of the method: as §1

BRD4 = molecular target: T6, BRD4 (Homo sapiens, UniProt O60885); experiment: Liability panel screening by DSF: BRD4; assay type: binding; conditions: read-out: Mean ΔTM BRD4
T6 construct: This panel comprised ten highly ligandable kinases and bromodomains; made in house
Summary of the method: as §1

BRPF1 = molecular target: T7, BRPF1 (Homo sapiens, UniProt P55201); experiment: Liability panel screening by DSF: BRPF1; assay type: binding; conditions: read-out: Mean ΔTM BRPF1
T7 construct: This panel comprised ten highly ligandable kinases and bromodomains; made in house
T7 sequence (P55201 628-732 limits assumed): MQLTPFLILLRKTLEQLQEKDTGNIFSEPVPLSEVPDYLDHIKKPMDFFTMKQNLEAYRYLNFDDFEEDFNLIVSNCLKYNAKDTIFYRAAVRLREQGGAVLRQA
Summary of the method: as §1

NR3A1 (ERα) = conditions: (lit.); ref Supplementary Table 1; read-out: Potency [nM] EC50, NR3A1 (ERα); cited from earlier work
CSNK1D = molecular target: T8, CSNK1D (Homo sapiens, UniProt P48730); experiment: Liability panel screening by DSF: CSNK1D; assay type: binding; conditions: read-out: Mean ΔTM CSNK1D
T8 construct: made in house
Summary of the method: as §1

CDK2 = molecular target: T9, CDK2 (Homo sapiens, UniProt P24941); experiment: Liability panel screening by DSF: CDK2; assay type: binding; conditions: read-out: Mean ΔTM CDK2
T9 construct: made in house
Summary of the method: as §1

FGFR3 = molecular target: T10, FGFR3 (Homo sapiens, UniProt P22607); experiment: Liability panel screening by DSF: FGFR3; assay type: binding; conditions: read-out: Mean ΔTM FGFR3
T10 construct: made in house
Summary of the method: as §1

[6] = test system: NF-κB activity in HEK293 NF-κB reporter cells; experiment: NF-kB activity assay (GFP reporter, ionomycin/PMA); assay type: cell-based; conditions: n=3
Summary of the method: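 Reporter readout: GFP-expressing cells normalized to confluence, imaged every 90 min across 24 h after ionomycin (100 ng/mL)/PMA (10 ng/mL) stimulation of HEK293 cells pre-treated 4 h with compound (0.1% DMSO); triplicate independent experiments.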

NR3C4 (AR) = conditions: read-out: Potency [nM] EC50, NR3C4 (AR); cited from earlier work
NR3C2 (MR) = conditions: (lit.); ref Supplementary Table 1; read-out: Potency [nM] EC50, NR3C2 (MR); cited from earlier work
NR3C1 (GR) = conditions: (lit.); ref Supplementary Table 1; read-out: Potency [nM] EC50, NR3C1 (GR); cited from earlier work
[7] = test system: ATF6 activity in Hela ATF6 reporter cells; experiment: Endoplasmic reticulum stress assay (ATF6 Renilla luciferase reporter, tunicamycin); assay type: cell-based; conditions: Homo sapiens, HeLa, 1 µM, single replicates n=1 to n=5; read-out: ER stress [rel. ATF6 activity]
Summary of the method: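 ER stress was induced by 100 ng/mL tunicamycin added 4 h after compound (0.1% DMSO) to HeLa ATF6 reporter cells. After 18 h more, Renilla luciferase signal was read and expressed relative to DMSO control, n=5 biological replicates.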

HEK293T cells [8] = experiment: Cytotoxicity: necrosis induction (red fluorescent dye for permeable plasma membranes); assay type: cell-based; conditions: 1 µM, 24 h, necrotic cell count normalized to 0.1% DMSO, single replicates;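 also: compounds applied in DMEM high glucose with 0.1% FCS and 0.1% DMSO, necrotic HEK293T cells counted by red staining of cells whose plasma membranes had become permeable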
NR3C3 (PR) = conditions: (lit.); ref Supplementary Table 1; read-out: Potency [nM] EC50, NR3C3 (PR); cited from earlier work

T4 sequence (P00519 whole entry, species assumed): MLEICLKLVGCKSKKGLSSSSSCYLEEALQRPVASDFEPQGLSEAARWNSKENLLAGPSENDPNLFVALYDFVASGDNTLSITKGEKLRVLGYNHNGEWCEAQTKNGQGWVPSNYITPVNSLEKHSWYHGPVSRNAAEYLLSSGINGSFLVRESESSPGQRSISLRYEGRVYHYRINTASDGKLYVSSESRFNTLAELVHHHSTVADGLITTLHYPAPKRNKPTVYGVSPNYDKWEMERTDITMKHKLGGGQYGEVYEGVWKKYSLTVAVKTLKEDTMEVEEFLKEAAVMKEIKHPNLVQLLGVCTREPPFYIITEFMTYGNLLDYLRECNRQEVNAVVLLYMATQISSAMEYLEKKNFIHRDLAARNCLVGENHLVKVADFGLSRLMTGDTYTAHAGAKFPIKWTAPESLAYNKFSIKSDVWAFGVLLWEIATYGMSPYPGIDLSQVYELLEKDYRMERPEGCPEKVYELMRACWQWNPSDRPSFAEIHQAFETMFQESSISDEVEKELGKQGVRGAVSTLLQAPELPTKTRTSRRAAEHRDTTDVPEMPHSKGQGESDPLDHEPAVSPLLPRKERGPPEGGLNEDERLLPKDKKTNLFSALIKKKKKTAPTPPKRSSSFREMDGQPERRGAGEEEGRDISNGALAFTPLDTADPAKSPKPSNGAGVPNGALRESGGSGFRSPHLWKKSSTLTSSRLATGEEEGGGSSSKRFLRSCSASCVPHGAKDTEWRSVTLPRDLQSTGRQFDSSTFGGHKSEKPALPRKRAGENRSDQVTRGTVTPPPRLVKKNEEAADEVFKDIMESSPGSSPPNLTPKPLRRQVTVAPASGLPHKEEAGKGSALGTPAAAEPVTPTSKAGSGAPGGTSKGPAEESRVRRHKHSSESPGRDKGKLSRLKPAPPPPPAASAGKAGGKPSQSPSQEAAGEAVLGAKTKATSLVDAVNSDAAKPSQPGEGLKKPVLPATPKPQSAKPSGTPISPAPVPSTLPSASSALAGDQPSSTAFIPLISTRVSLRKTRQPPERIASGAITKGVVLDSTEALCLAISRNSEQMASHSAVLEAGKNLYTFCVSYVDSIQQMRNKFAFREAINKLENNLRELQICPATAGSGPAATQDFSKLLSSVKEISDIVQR
T10 sequence (P22607 23-806, species assumed): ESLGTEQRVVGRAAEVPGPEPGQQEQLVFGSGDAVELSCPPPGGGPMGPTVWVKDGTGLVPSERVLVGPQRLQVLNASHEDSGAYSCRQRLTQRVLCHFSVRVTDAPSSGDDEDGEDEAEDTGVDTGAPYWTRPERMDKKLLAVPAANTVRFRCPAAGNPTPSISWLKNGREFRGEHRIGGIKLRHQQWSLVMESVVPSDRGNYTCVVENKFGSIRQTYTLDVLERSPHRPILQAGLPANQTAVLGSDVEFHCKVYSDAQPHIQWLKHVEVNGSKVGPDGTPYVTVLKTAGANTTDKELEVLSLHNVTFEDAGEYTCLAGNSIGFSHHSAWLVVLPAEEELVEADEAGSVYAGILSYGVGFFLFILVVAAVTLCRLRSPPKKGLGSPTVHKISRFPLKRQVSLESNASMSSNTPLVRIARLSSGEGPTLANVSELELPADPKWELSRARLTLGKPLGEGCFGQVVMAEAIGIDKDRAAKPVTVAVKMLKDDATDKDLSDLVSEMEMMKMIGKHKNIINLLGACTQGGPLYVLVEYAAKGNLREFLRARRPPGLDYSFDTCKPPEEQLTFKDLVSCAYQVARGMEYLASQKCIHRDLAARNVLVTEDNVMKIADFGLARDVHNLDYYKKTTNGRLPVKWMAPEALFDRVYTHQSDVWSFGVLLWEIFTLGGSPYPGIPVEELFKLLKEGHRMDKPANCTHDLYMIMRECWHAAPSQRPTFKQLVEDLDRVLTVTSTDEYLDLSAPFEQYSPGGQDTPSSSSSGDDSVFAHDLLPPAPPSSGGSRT
T8 sequence (P48730 whole entry, species assumed): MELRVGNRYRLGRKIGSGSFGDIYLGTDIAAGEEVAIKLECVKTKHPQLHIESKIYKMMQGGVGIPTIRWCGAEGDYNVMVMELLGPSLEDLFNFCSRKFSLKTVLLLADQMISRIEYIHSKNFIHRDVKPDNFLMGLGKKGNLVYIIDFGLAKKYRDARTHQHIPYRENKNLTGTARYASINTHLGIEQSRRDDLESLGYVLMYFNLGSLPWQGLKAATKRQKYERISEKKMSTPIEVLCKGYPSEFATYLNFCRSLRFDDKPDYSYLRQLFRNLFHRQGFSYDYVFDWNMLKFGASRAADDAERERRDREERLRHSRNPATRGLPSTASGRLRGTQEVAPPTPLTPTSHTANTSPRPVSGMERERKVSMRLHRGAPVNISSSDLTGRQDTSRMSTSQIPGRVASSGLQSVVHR
T1 sequence (P49841 whole entry, species assumed): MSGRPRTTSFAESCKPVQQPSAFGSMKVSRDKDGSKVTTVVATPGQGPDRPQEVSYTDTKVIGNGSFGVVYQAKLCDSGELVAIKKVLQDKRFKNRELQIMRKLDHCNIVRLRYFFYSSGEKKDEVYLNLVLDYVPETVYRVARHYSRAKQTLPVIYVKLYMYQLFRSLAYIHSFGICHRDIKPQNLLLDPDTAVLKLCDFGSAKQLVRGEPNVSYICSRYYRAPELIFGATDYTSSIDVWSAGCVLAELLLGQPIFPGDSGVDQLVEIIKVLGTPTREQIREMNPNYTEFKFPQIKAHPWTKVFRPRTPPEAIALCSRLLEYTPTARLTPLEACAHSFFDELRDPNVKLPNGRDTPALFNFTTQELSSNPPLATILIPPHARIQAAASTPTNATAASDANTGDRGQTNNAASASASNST
T5 sequence (P28482 whole entry, species assumed): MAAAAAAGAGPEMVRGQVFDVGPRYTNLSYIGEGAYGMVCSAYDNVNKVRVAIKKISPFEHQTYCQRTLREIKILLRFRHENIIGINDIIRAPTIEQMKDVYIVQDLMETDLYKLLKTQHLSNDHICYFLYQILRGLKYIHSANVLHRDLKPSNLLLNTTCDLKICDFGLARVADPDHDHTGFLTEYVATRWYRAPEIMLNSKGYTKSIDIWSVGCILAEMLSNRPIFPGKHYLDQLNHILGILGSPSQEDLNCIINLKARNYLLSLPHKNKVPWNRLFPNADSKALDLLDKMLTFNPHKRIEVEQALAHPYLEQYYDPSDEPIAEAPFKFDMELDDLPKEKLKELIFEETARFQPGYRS

In the case of C#C[C@]1(O)CC[C@H]2[C@@H]3CCc4cc(O)ccc4[C@H]3CC[C@@]21C [Ethinylestradiol], the “NR off-target at recom. conc.” value ([1]; known NR off-target at the recommended concentration, ref Supplementary Table 1 (superscript references)) is given as “NR1I3”, the “Other off-target at recom. conc.” value ([1]; known off-target outside the NR family at the recommended concentration, ref Supplementary Table 1 (superscript references)) is given as “AOX1 and CYP2B6 and SULT1A1 and OCT2” and the “Reason for exclusion: number of annotated off-targets” value ([1]; other targets with annotated bioactivities at ≤10 µM in previously published dataset) is given as greater than 5 off-targets. The “Growth rate [GR]” value (HEK293T cells [2]) was 1.36 and 0.84 and 1.03 and 0.88 and 0.94 and 0.78, the “Apoptosis induction [AI]” value (HEK293T cells [3]; DMSO 0.1% = 1.00) was 1.56 and 1.81 and the apoptosis induction (HEK293T cells [3]; HEK293T, 24 h, budesonide (3 µM), others at tested concentration) was “slight apoptosis induction”. The ΔTm at 20 µM (GSK3B; DSF, 20 µM, n=2) was 0.23 °C, the ΔTm at 20 µM (TRIM24; DSF, 20 µM, n=2) was -1.12 °C and the “effects on growth-rate, metabolic activity and necrosis” value (HEK293T cells [4]) was “without relevant effects”. The “VP16 control [fold reporter gene activity] (n=3), n=1” value (Gal4-VP16; replicate n=1) was 1.03 fold, the “VP16 control [fold reporter gene activity] (n=3), n=2” value (Gal4-VP16; replicate n=2) was 0.89 fold and the “VP16 control [fold reporter gene activity] (n=3), n=3” value (Gal4-VP16; replicate n=3) was 0.92 fold. The ΔTm at 20 µM (AURKA; DSF, 20 µM, n=2) was 0.11 °C, the “Metabolic activity [MA]” value (HEK293T cells [5]; DMSO 0.1% = 1.00) was 1.06 (2×) and 0.82 and 1.07 and 1.00 and 0.95 and the EC50 (NR3A2 (ERβ)) was 18 ± 2 nM. It also gave a ΔTm at 20 µM (ABL1; DSF, 20 µM, n=2) of -0.29 °C, a ΔTm at 20 µM (MAPK1; DSF, 20 µM, n=2) of 0.35 °C and a ΔTm at 20 µM (BRD4; DSF, 20 µM, n=2) of 0.13 °C. The ΔTm at 20 µM (BRPF1; DSF, 20 µM, n=2) was 1.32 °C, the EC50 (NR3A1 (ERα)) was 8 ± 1 nM and the ΔTm at 20 µM (CSNK1D; DSF, 20 µM, n=2) was 0.07 °C. The ΔTm at 20 µM (CDK2; DSF, 20 µM, n=2) was -0.25 °C and the ΔTm at 20 µM (FGFR3; DSF, 20 µM, n=2) was -0.28 °C.

For C[C@]1(O)CC[C@H]2[C@@H]3CCC4=CC(=O)CCC4=C3C=C[C@@]21C [Methyltrienolone], the “Growth rate [GR]” value (HEK293T cells [2]) was 0.54 and 2.52 and 1.01 and 1.07 and 0.85 and 1.02 and 1.00 and 1.19 and 1.25 and 1.79, the “Apoptosis induction [AI]” value (HEK293T cells [3]; HEK293T, 24 h, apoptotic cell count normalized to 0.1% DMSO) was 0.87 and 1.36 and 0.90 and 1.12 and 0.53 and 0.75 and the ΔTm at 20 µM (GSK3B) was -0.24 °C. For the same compound, the ΔTm at 20 µM (TRIM24) was -0.03 °C, the “Mean NFκB response” value ([6]; 1 µM, 1,5 h) was 3531.33 GFP+-cells/confluence ∙ 1000 and the “Mean NFκB response” value ([6]; 1 µM, 4,5 h) was 3781.33 GFP+-cells/confluence ∙ 1000. For the same compound, the “Mean NFκB response” value ([6]; 1 µM, 7,5 h) was 7660.67 GFP+-cells/confluence ∙ 1000, the “Mean NFκB response” value ([6]; 1 µM, 10,5 h) was 17176.00 GFP+-cells/confluence ∙ 1000 and the “Mean NFκB response” value ([6]; 1 µM, 13,5 h) was 24525.33 GFP+-cells/confluence ∙ 1000. For the same compound, the “Mean NFκB response” value ([6]; 1 µM, 16,6 h) was 30685.33 GFP+-cells/confluence ∙ 1000, the “Mean NFκB response” value ([6]; 1 µM, 19,5 h) was 34386.67 GFP+-cells/confluence ∙ 1000 and the “Mean NFκB response” value ([6]; 1 µM, 22,5 h) was 37650.00 GFP+-cells/confluence ∙ 1000. The “Mean NFκB response” value ([6]; 1 µM, 3 h) was 3552.67 GFP+-cells/confluence ∙ 1000, the “Mean NFκB response” value ([6]; 1 µM, 6 h) was 4781.67 GFP+-cells/confluence ∙ 1000 and the “Mean NFκB response” value ([6]; 1 µM, 9 h) was 12656.33 GFP+-cells/confluence ∙ 1000. The “Mean NFκB response” value ([6]; 1 µM, 12 h) was 21183.67 GFP+-cells/confluence ∙ 1000, the “Mean NFκB response” value ([6]; 1 µM, 15 h) was 28114.67 GFP+-cells/confluence ∙ 1000 and the “Mean NFκB response” value ([6]; 1 µM, 18 h) was 32970.33 GFP+-cells/confluence ∙ 1000. The “Mean NFκB response” value ([6]; 1 µM, 21 h) was 36266.67 GFP+-cells/confluence ∙ 1000, the “Mean NFκB response” value ([6]; 1 µM, 24 h) was 38486.67 GFP+-cells/confluence ∙ 1000 and the EC50 (NR3C4 (AR)) was 0.01 ± 0.01 nM. For the same compound, the EC50 (NR3C2 (MR)) was 0.5 ± 0.1 nM, the ΔTm at 20 µM (AURKA) was 0.08 °C and the EC50 (NR3C1 (GR)) was 10 ± 4 nM. For the same compound, the “Metabolic activity [MA]” value (HEK293T cells [5]; HEK293T, 24 h, WST-8, normalized to 0.1% DMSO) was 0.98 and 1.02 and 0.97 (2×) and 1.07 and 1.05 and 1.13 and 1.10, the activity at 1 µM [7] was 100% and the “Necrosis induction [NI]” value (HEK293T cells [8]) was 0.85 and 1.01 and 0.97 and 1.35. The ΔTm at 20 µM (ABL1) was 0.42 °C, the ΔTm at 20 µM (MAPK1) was -0.02 °C and the ΔTm at 20 µM (BRD4) was -0.94 °C. For the same compound, the ΔTm at 20 µM (BRPF1) was -1.21 °C, the ΔTm at 20 µM (CSNK1D) was -0.05 °C and the EC50 (NR3C3 (PR)) was 0.5 ± 0.3 nM. It also gave a ΔTm at 20 µM (CDK2) of -0.06 °C and a ΔTm at 20 µM (FGFR3) of 0.15 °C.
